Values of other authors as cited in patent US20190105268A1, “Viscoelastic Gel of Liraglutide Adapted for Once-Weekly or Once Bi-Weekly Administration” (Sun Pharma Advanced Research Company Limited, priority 2016, published 2019).

## liraglutide
DMSO
  solubility in DMSO: slightly soluble
ethanol
  solubility in ethanol: 1100 µg/mL
methanol
  solubility in methanol: up to 68 mg/ml
water
  solubility in water: insoluble to slightly soluble
